Laboratory results: ChEMBL document CHEMBL1201862, “PubChem BioAssay data set” (2004)
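These data come from cells grown in 96-well plates and exposed to compound for 48 hours at five concentrations. GI50: concentration for 50% inhibition of growth.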 Activity calls are given as the source filed them. No stated cut-off is given here; in the data, active = GI50 up to about 1.1 µM and inactive = higher.

What was measured:
Test in all cases: growth of human tumour cells (NCI), 48 h
[1] = system: CCRF-CEM
[2] = system: HCT-116
[3] = system: NCI-H23
[4] = system: SR
[5] = system: SK-MEL-28
[6] = system: UO-31
[7] = system: K562
[8] = system: MDA-MB-435
[9] = system: IGROV-1
[10] = system: MCF7
[11] = system: SF-268
[12] = system: RPMI-8226
[13] = system: T47D
[14] = system: OVCAR-3
[15] = system: NCI-H522
[16] = system: SN12C
[17] = system: A498
[18] = system: CAKI-1
[19] = system: ACHN
[20] = system: PC-3

| SMILES | GI50 [1] | GI50 [2] | GI50 [3] | GI50 [4] | GI50 [5] | GI50 [6] | GI50 [7] | GI50 [8] | GI50 [9] | GI50 [10] | GI50 [11] | GI50 [12] | GI50 [13] | GI50 [14] | GI50 [15] | GI50 [16] | GI50 [17] | GI50 [18] | GI50 [19] | GI50 [20] |
| --- | --- | --- | --- | --- | --- | --- | --- | --- | --- | --- | --- | --- | --- | --- | --- | --- | --- | --- | --- | --- |
| COc1cc(Cn2c(=S)ss/c2=N\C(=S)N(C)C)cc(OC)c1OC | 4.32 µM (inactive) | 4.53 µM (inactive) | 14.7 µM (inactive) | 3.42 µM (inactive) | 10 µM (inactive) | 24.3 µM (inactive) | 2.59 µM (inactive) | 1.26 µM (inactive) | 17.2 µM (inactive) | 3.64 µM (inactive) | 8.93 µM (inactive) | 6.7 µM (inactive) | > 86.7 µM (inactive) | 1.89 µM (inactive) | 2.3 µM (inactive) | > 50.2 µM (inactive) | 22.6 µM (inactive) | 4.57 µM (inactive) | 7.06 µM (inactive) | 3.35 µM (inactive) |
| O=CCCCCCOCc1ccccc1 | 28 µM (inactive) | 27 µM (inactive) | 50.7 µM (inactive) | 39.6 µM (inactive) | > 100 µM (inactive) | > 87.1 µM (inactive) | 9.98 µM (inactive) | > 100 µM (inactive) | 40.7 µM (inactive) | 54.8 µM (inactive) | > 100 µM (inactive) | 25.1 µM (inactive) | > 100 µM (inactive) | > 74 µM (inactive) | 20.7 µM (inactive) | 17.7 µM (inactive) | > 100 µM (inactive) | > 45.8 µM (inactive) | 36.9 µM (inactive) | > 100 µM (inactive) |
| NC(=O)NC(=O)c1cccc(NC(=O)CI)c1 | < 0.01 µM (active) | < 0.01 µM (active) | < 0.0212 µM (active) | < 0.01 µM (active) | 0.389 µM (active) | 0.162 µM (active) | < 0.01 µM (active) | < 0.01 µM (active) | 0.0483 µM (active) | < 0.01 µM (active) | 0.0254 µM (active) | < 0.0128 µM (active) | 1.66 µM (inactive) | < 0.01 µM (active) | < 0.01 µM (active) | < 0.0197 µM (active) | 0.231 µM (active) | < 0.01 µM (active) | < 0.017 µM (active) | 0.0316 µM (active) |
| COc1cccc2c1C(=O)C(=O)c1c-2oc(=O)c2cc(C)cc(OC)c12 | 17.5 µM (inactive) | 27.4 µM (inactive) | 19.3 µM (inactive) | 8.91 µM (inactive) | 53.6 µM (inactive) | 35 µM (inactive) | 22.3 µM (inactive) | 14.2 µM (inactive) | 16.7 µM (inactive) | 23.7 µM (inactive) | 17.3 µM (inactive) | 20.6 µM (inactive) | 29.9 µM (inactive) | 15.7 µM (inactive) | 14.1 µM (inactive) | 53.8 µM (inactive) | > 75 µM (inactive) | 67.5 µM (inactive) | > 75 µM (inactive) | 37.8 µM (inactive) |
| O=C(Nc1sccc1S(=O)(=O)c1ccc(Cl)cc1)c1ccc(F)cc1F | 19.2 µM (inactive) | 45.8 µM (inactive) | 21 µM (inactive) | 18.2 µM (inactive) | > 100 µM (inactive) | 22.2 µM (inactive) | 18 µM (inactive) | > 100 µM (inactive) | 30.6 µM (inactive) | 40.5 µM (inactive) | 19.7 µM (inactive) | 62.8 µM (inactive) | 31.8 µM (inactive) | 37.4 µM (inactive) | 20.3 µM (inactive) | 56.8 µM (inactive) | 24.2 µM (inactive) | 26.2 µM (inactive) | 32.1 µM (inactive) | 27.2 µM (inactive) |
| COc1cc2c(cc1OC)C(Cl)C(c1ccc(Br)cc1)=C2Cl (stereo not given) | 10.7 µM (inactive) | 9.16 µM (inactive) | 9.95 µM (inactive) | 2.62 µM (inactive) | 14.8 µM (inactive) | 8.65 µM (inactive) | 5.33 µM (inactive) | 4.37 µM (inactive) | 11.9 µM (inactive) | 7.21 µM (inactive) | 11.1 µM (inactive) | 2.52 µM (inactive) | 3.23 µM (inactive) | 9.84 µM (inactive) | 4.42 µM (inactive) | 10.6 µM (inactive) | 15.2 µM (inactive) | 15.1 µM (inactive) | 9.46 µM (inactive) | 7.82 µM (inactive) |
